# Measurements as given in ChEMBL document CHEMBL3124838, “Discovery of 6-aryl-azabenzimidazoles that inhibit the TBK1/IKK-ε kinases” (Bioorg Med Chem Lett, 2014).
# Assays:
# [1] = molecular target: T1, Activin receptor type-1B (Homo sapiens) (UniProt P36896); assay: Inhibition of human ALK4 assessed as residual activity at 1 uM relative to control
# T1 sequence (whole entry): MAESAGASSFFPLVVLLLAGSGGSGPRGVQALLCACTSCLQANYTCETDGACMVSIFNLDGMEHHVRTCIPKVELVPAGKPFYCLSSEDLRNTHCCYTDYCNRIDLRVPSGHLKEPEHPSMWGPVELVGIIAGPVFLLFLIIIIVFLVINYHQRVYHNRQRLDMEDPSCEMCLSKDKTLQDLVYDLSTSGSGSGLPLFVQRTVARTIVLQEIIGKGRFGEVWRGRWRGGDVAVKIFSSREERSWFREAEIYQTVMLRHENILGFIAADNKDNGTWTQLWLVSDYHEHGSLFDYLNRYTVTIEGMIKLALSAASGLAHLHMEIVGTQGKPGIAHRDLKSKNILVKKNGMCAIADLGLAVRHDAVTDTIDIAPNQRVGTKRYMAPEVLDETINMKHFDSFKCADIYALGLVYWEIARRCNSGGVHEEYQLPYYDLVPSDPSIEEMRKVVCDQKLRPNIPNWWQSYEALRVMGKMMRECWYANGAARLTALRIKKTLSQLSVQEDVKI
# [2] = molecular target: Proto-oncogene tyrosine-protein kinase receptor Ret (Homo sapiens) (UniProt P07949); assay: Inhibition of human RET assessed as residual activity at 1 uM relative to control
# [3] = molecular target: T2, TGF-beta receptor type-1 (Homo sapiens) (UniProt P36897); assay: Inhibition of human TGFBR1 assessed as residual activity at 1 uM relative to control
# T2 sequence (whole entry): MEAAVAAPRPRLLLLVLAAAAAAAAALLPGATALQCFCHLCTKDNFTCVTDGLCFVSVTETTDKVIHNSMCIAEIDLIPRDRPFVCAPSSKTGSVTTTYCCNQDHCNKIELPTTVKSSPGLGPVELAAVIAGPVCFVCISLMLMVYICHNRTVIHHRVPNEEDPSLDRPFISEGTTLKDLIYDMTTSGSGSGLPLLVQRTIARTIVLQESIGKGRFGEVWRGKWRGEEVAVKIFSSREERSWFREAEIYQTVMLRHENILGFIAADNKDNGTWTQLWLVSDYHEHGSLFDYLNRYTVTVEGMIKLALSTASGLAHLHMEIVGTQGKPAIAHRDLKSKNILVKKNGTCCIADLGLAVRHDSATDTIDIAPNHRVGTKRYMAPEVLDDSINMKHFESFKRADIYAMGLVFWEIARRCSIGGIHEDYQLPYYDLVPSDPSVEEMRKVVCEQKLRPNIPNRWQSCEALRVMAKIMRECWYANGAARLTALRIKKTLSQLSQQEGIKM
# [4] = molecular target: T3, Phosphatidylinositol 3-kinase C2 domain-containing subunit gamma (Homo sapiens) (UniProt O75747); assay: Inhibition of human PI3KC2gamma assessed as residual activity at 1 uM relative to control
# T3 sequence (whole entry): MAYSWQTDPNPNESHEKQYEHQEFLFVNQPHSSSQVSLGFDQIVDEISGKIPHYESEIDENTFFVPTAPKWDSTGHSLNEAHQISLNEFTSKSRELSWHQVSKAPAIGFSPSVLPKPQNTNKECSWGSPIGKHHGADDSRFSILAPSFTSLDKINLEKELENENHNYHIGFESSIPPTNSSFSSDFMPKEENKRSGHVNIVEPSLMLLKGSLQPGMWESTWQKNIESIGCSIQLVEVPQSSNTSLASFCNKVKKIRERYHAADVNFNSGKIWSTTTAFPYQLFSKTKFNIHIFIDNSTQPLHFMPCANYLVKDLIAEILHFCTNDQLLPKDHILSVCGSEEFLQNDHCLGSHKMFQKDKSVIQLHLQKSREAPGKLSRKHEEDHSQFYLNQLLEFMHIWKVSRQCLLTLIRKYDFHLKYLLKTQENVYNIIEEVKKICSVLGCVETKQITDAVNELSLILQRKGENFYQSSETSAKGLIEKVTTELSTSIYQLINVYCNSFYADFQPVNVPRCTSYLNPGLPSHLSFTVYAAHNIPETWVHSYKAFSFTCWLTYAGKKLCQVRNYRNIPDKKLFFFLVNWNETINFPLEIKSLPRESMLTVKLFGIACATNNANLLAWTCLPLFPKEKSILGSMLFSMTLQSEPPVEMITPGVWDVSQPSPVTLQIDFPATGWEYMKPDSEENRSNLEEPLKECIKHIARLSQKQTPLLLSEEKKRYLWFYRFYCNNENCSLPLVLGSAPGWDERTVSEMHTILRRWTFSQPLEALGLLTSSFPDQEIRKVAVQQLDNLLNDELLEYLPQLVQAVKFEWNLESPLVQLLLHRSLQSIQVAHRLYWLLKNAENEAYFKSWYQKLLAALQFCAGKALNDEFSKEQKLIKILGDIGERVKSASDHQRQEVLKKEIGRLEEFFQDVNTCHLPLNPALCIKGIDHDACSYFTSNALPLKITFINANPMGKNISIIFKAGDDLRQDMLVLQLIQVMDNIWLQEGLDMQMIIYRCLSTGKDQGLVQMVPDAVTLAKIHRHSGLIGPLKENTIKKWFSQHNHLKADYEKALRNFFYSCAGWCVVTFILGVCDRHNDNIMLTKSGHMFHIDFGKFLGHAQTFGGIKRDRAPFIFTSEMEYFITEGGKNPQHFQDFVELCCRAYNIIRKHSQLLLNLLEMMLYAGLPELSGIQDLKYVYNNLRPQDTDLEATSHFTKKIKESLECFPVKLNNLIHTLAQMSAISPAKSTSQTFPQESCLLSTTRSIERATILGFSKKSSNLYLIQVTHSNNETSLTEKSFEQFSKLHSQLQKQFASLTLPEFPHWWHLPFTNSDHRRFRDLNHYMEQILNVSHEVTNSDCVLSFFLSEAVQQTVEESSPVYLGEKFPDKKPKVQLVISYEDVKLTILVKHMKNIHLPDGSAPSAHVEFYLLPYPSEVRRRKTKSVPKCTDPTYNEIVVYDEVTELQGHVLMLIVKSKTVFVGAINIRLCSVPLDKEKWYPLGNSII
# Sequence of Proto-oncogene tyrosine-protein kinase receptor Ret (Homo sapiens) (P07949 whole entry): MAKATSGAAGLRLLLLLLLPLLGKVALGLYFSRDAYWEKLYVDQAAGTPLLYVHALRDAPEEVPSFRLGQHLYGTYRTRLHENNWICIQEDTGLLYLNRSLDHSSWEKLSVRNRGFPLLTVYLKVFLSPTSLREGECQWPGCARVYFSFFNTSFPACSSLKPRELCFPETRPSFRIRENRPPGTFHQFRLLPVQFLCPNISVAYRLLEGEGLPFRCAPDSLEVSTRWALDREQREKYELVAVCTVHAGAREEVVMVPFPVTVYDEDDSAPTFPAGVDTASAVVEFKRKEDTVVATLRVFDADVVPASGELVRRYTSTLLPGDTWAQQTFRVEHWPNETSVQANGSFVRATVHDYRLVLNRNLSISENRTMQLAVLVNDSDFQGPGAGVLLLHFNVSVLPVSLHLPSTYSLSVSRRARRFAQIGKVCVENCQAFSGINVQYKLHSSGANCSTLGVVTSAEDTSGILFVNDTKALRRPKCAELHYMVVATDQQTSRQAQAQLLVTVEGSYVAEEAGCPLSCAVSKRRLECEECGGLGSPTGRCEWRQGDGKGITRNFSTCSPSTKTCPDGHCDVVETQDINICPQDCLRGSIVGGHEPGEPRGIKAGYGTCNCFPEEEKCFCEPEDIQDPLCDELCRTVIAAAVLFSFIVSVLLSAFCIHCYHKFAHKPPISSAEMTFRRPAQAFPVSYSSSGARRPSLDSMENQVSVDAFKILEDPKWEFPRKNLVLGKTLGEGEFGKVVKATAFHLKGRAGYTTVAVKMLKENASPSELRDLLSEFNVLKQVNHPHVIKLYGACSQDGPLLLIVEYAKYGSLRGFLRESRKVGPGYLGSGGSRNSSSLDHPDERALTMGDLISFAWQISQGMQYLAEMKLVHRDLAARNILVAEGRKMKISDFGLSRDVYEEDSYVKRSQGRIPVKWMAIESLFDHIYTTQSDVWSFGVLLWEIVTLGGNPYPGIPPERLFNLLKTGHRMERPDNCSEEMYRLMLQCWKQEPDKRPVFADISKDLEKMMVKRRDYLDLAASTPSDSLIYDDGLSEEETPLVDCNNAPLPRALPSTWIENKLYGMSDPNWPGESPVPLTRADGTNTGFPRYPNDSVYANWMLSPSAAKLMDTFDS
Activity [1] [%],Activity [2] [%],Activity [3] [%],Activity [4] [%],Structure (SMILES)
96,6,104,92,COc1ccc(-c2nc3cc(-c4csc(C(=O)NCC(C)C)c4)cnc3[nH]2)cc1
85,7,85,94,COc1ccc(-c2nc3cc(-c4csc(C(=O)NCCC(C)C)c4)cnc3[nH]2)cc1
85,10,111,94,COc1ccc(-c2nc3cc(-c4csc(C(=O)NCC(C)(C)C)c4)cnc3[nH]2)cc1
